# From patent US20100227921A1, “AMINO ACID AND PEPTIDE CARBAMATE PRODRUGS OF […] USES THEREOF” (SHIRE LLC, priority 2009, published 2010)
# Values joined by “and” are separate entries in the source; they are usually repeats but may differ in a detail not shown here. Equal values may be shown once. Read-outs that look alike come from different tables or passages of the source. Marks after values point to notes of the source that are not given here.
# Experiments:
# [1] = Stability of tapentadol valine carbamate in simulated gastric and intestinal fluids, water and pH 10 buffer; format: physicochemical
# [2] = Comparative in vivo bioavailability study in the dog (oral gavage, plasma LC-MS-MS)
# Description: Test substances (i.e., tapentadol (1 mg/kg) and tapentadol valine carbamate (0.8 mg tapentadol base equivalents/kg)) were administered by oral gavage to a group of five dogs (dog nos. 1, 2, 3, 4 and 5) in a two-way crossover design. The characteristics of the test animals are set out in Table 3.
# (§1) Blood samples were taken at various times after administration and submitted to analysis for the parent drug and pro-drug using a validated LC-MS-MS assay. Pharmacokinetic parameters derived from the plasma analytical data were determined using Win Nonlin.
# [3] = test system: guinea pig small intestine myenteric plexus longitudinal muscle; assay: Electrical field stimulation response of isolated guinea pig small intestine smooth muscle (ex vivo); details: isolated guinea pig ileum
# Description: Strips of guinea pig small intestine myenteric plexus longitudinal muscle and mounted between platinum ring electrodes. The tissue was stretched to a steady tension of about 1 g and changes in force production were recorded using sensitive transducers.
# The optimal voltage for stimulation was determined while the tissue was paced with electrical field stimulation (EFS) at 14 Hz, with a pulse width of 0.5 msec (Trains of pulses for 20 seconds, every 50 seconds).
# EFS at optimal voltage continued throughout the protocol (stable responses=“baseline measurement of EFS”).
# The 3 test conditions employed were as follows:
# (1) Vehicle (deionised water, added at equivalent volume additions to test articles), (2) Tapentadol at 6 concentrations (10 nM, 100 nM, 1 μM, 3 μM, 10 μM & 30 μM) (3) Tapentadol valine carbamate at 6 concentrations (10 nM, 100 nM, 1 μM, 3 μM, 10 μM, & 30 μM).
# Following 10 minutes of baseline EFS, first addition of test article or vehicle (deionized water) was performed.
# Test concentrations were added in a non-cumulative manner with PSS washes between each addition. Next, TTX (Na+ channel blocker) was added to confirm EFS responses were elicited via nerve stimulation. EFS was then stopped.
# [4] = Comparative bioavailability after oral administration to rats (plasma LC-MS-MS); format: in vivo; details: male rat, oral tapentadol valine carbamate 10 mg tapentadol free base equiv/kg, individual animals 6-10
# Description: Test substances, i.e., tapentadol or tapentadol valine carbamate were administered by oral gavage to groups of male Sprague Dawley rats.
# as §1
# [5] = oral tapentadol valine carbamate 0.8 mg tapentadol base equiv/kg, individual dogs 1-5
structure (smiles),measurement,setting,value
"CC[C@H](c1cccc(OC(=O)N[C@H](C(=O)O)C(C)C)c1)[C@H](C)CN(C)C (racemic) [Tapentadol valine carbamate, 2-[3-(3-Dimethylamino-1-ethyl-2-methyl-propyl)-phenoxycarbonylamino]-3-methyl-butyric acid]",Simulated gastric fluid (pH 1.1): % remaining after 2 h/37° C.,"[1]; USP simulated gastric fluid pH 1.1, 2 h, 37° C., HPLC",100%
same,Simulated intestinal fluid (pH 6.8): % remaining after 2 h/37° C.,"[1]; USP simulated intestinal fluid pH 6.8, 2 h, 37° C., HPLC",100%
same,Distilled water (pH 5.9): % remaining after 2 h/20° C.,"[1]; distilled water pH 5.9, 2 h, 20° C.",100%
same,pH 10.0 buffer: % remaining after 2 h/20° C.,"[1]; pH 10.0 buffer, 2 h, 20° C.",82%
same,stability under the conditions existing in the GI tract,[1]; summary in words of Table 2,stable
same,half-life,"[2]; Beagle, plasma, po, 0.8 mg/kg, oral tapentadol valine carbamate 0.8 mg tapentadol base equiv/kg, calculated as ln2/mean k, read-out: t½ of tapentadol valine carbamate (converted)",4.8 h
same,Cmax,"[2]; Beagle, plasma, po, 0.8 mg/kg, oral tapentadol valine carbamate 0.8 mg tapentadol base equiv/kg, individual dogs 1-5, read-out: Cmax of tapentadol valine carbamate",42.8 ng/mL
same,AUC,"[2]; Beagle, plasma, po, 0.8 mg/kg, oral tapentadol valine carbamate 0.8 mg tapentadol base equiv/kg, mean of 5 dogs, read-out: AUC of tapentadol valine carbamate",205 ng·h/mL
same,AUC(0-t),"[2]; Beagle, plasma, po, 0.8 mg/kg, oral tapentadol valine carbamate 0.8 mg tapentadol base equiv/kg, mean of 5 dogs, read-out: AUCt of tapentadol valine carbamate",192 ng·h/mL
same,Cmax,"[2]; Beagle, plasma, po, 0.8 mg/kg, oral tapentadol valine carbamate 0.8 mg tapentadol base equiv/kg, mean of 5 dogs, read-out: Cmax of tapentadol valine carbamate",53.4 ng/mL
same,Tmax,"[2]; Beagle, plasma, po, 0.8 mg/kg, oral tapentadol valine carbamate 0.8 mg tapentadol base equiv/kg, median of 5 dogs, read-out: Tmax of tapentadol valine carbamate",1 h
same,increase of duration of sustainment of active drug in the blood,[2]; following administration of the prodrug compared to tapentadol alone,two to three fold
same,duration of drug sustainment in plasma,[2]; oral prodrug vs oral tapentadol,doubling
same,AUC of tapentadol valine carbamate,[2]; [5],157 ng·h/mL and 126 ng·h/mL and 272 ng·h/mL and 221 ng·h/mL and 252 ng·h/mL
same,AUCt of tapentadol valine carbamate,[2]; [5],131 ng·h/mL and 119 ng·h/mL and 260 ng·h/mL and 208 ng·h/mL and 241 ng·h/mL
same,Cmax of tapentadol valine carbamate,[2]; [5],45.3 ng/mL and 62.3 ng/mL and 46.4 ng/mL and 70.0 ng/mL
same,T>50%Cmax of tapentadol valine carbamate,[2]; [5],1.5 h (4×) and 0.5 h
same,Tmax of tapentadol valine carbamate,[2]; [5],2 h
same,t½ of tapentadol valine carbamate,[2]; [5],6.7 h and 3.0 h and 5.0 h and 5.9 h and 5.3 h
same,T>50%Cmax of tapentadol valine carbamate,"[2]; oral tapentadol valine carbamate 0.8 mg tapentadol base equiv/kg, median of 5 dogs",1.5^a h
same,EC50,"[3]; Cavia porcellus, EFS 14 Hz, non-cumulative 10 nM-30 μM, read-out: approximate EC50, effect on electrical field stimulation response",~10 µM
same,reduction in the opioid effects on ileal smooth muscle compared to tapentadol,[3]; EFS,50 fold
same,concentration at 0.5 h,"[4]; Sprague Dawley, plasma, 0.5 h, read-out: Plasma concentration of tapentadol valine carbamate",64.5 ng/mL
same,concentration at 1 h,"[4]; Sprague Dawley, plasma, 1 h, read-out: Plasma concentration of tapentadol valine carbamate",72.4 ng/mL
same,concentration at 2 h,"[4]; Sprague Dawley, plasma, 2 h, read-out: Plasma concentration of tapentadol valine carbamate",85.8 ng/mL
same,concentration at 4 h,"[4]; Sprague Dawley, plasma, 4 h, read-out: Plasma concentration of tapentadol valine carbamate",42.5 ng/mL
same,concentration at 6 h,"[4]; Sprague Dawley, plasma, 6 h, read-out: Plasma concentration of tapentadol valine carbamate",30.5 ng/mL
same,Plasma concentration of tapentadol valine carbamate,[4]; 0.5 h,79.5 ng/mL and 86.5 ng/mL and 77.5 ng/mL and 111 ng/mL
same,Plasma concentration of tapentadol valine carbamate,[4]; 1 h,73.8 ng/mL and 88.9 ng/mL and 83.1 ng/mL and 115 ng/mL
same,Plasma concentration of tapentadol valine carbamate,[4]; 2 h,57.3 ng/mL and 106 ng/mL and 76.4 ng/mL and 86.6 ng/mL
same,Plasma concentration of tapentadol valine carbamate,[4]; 3 h,76.7 ng/mL and 71.6 ng/mL and 74.8 ng/mL and 34.5 ng/mL and 86.4 ng/mL
same,Plasma concentration of tapentadol valine carbamate,[4]; 4 h,46.7 ng/mL and 47.0 ng/mL and 27.5 ng/mL and 51.6 ng/mL
